Experimental data published in patent US11851449B2, “Heterocyclic amide compounds having an RORvt inhibitory action” (TAKEDA PHARMACEUTICAL COMPANY LIMITED, priority 2013, dated 2023).
Like-named read-outs stand apart in the source and are kept apart here.

Key:
RORγt [1] = biological target: T1, RORγt (Homo sapiens, UniProt P51449); assay: Cofactor recruitment test (Alpha Screen, biotinylated SRC-1 peptide); format: biochemical; conditions: read-out: signal value inhibitory rate (%) at test compound 1 μM
T1 sequence (P51449 1-497 isoform P51449-2): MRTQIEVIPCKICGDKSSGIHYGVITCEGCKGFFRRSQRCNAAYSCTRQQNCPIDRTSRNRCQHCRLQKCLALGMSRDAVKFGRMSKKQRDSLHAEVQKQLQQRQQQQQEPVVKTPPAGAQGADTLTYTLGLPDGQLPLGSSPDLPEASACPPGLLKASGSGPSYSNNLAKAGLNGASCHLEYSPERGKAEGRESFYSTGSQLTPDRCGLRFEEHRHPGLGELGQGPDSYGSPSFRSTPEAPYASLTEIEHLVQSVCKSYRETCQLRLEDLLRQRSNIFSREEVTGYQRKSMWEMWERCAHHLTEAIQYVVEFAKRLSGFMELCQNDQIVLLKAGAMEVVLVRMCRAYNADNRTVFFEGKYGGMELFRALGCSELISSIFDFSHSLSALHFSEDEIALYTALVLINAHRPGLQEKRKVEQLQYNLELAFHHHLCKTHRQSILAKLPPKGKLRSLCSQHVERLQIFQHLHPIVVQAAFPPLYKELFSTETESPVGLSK
Description: Cofactor Recruitment Test
Cofactor recruitment test was performed by Alpha Screen (Histidine Detection Kit, PerkinElmer) method. First, a test compound was diluted with an assay buffer (50 mM Tris-HCl (pH 7.5), 50 mM KCl, 1 mM DTT, 0.1% BSA) and added to a 384 well plate by 5 μL. […] The mixture was stood in a dark place for 1 hr, and the signal value was measured by Envision (PerkinElmer).

RORγt [2] = biological target: T1, RORγt; assay: RORγt binding test (TR-FRET, fluorescent-labeled cholesterol); conditions: read-out: binding inhibitory rate (%) of fluorescent-labeled cholesterol to RORγt at test compound 1 μM
Description: The binding activity of the test compound to RORγt was measured by a time resolved fluorescence resonance energy transfer method (TR-FRET) utilizing histidine-tagged RORγt, fluorescent-labeled cholesterol (BODIPY-cholesterol, AVIVA), and terbium-labeled anti-histidine tag antibody (Invitrogen). First, a test compound diluted with an assay buffer (20 mM Tris-HCl (pH 7.5), 100 mM NaCl, 1 mM DTT, 0.1% BSA) was added to a 384 well plate by 3 μL. Then, RORγt diluted with an assay buffer to 240 nM was added by 3 μL, after which fluorescent-labeled cholesterol diluted with the assay buffer to 12 μM was added by 3 μL, and the mixture was stood at room temperature for 20 min. Thereafter, a terbium-labeled anti-histidine tag antibody diluted with the assay buffer to 8 nM was added by 3 μL. The mixture was stood at room temperature for 20 min, and fluorescence intensity (excitation wavelength 320 nm, fluorescence wavelength 520 nm, delay time 100 microseconds) was measured by Envision (PerkinElmer).

RORγt [3] = biological target: T1, RORγt; assay: Jurkat reporter test (human IL-17 ROR response element luciferase reporter); format: cell-based; conditions: read-out: luminescence level inhibitory rate (%) at test compound 3 μM
Description: The Jurkat cells used for the reporter test were cultured in a culture medium (RPMI (Invitrogen), 10% FCS (AusGeneX), 100 U/mL penicillin, 100 μg/mL streptomycin). On the day of the test, 4×10^7 cells were recovered by a centrifugal operation (1000 rpm, 5 min.) and suspended in PBS (phosphate buffered saline) (Invitrogen). Thereafter, the cells were recovered again by a centrifugal operation, and suspended in 2 mL of R buffer (NEON transfection kit, Invitrogen). […] Gene transfer was performed by Electroporation apparatus (NEON, Invitrogen) under the conditions of pulse voltage 1350 V, interval 10 milliseconds, number of times 3. The cells after gene transfer were suspended in 40 mL of a reaction medium (RPMI, 10% Lipid reduced FCS (HyClone), 10 mM HEPES (pH 7.5), 100 U/mL penicillin, 100 μg/mL streptomycin, 5 μM lovastatin), and plated in a 96 well plate by 90 μL. A test compound diluted with the reaction medium was added by 10 μL, and the cells were cultured overnight in an incubator. Bright-Glo (Promega) was added by 100 μL, and the mixture was stirred at room temperature for 10 min, and the luminescence level was measured by Envision (PerkinElmer).

[4] = test compound 3 μM, Jurkat cells

| Compound | inhibition at 1 µM (RORγt [1]) | inhibition at 1 µM (RORγt [2]) | inhibition at 3 µM (RORγt [3]; Jurkat) | inhibition at 3 µM (RORγt [3]; [4]) |
| --- | --- | --- | --- | --- |
| Cn1ncc2cc(C(NC(=O)[C@@H]3CNC(=O)C3)C(=O)Nc3ccc([Si](C)(C)C)c(F)c3)ccc21 (mixture of isomers) [Example 109, (3S)—N-(2-((3-fluoro-4-(trimethylsilyl)phenyl)amino)-1-(1-methyl-1H-indazol-5-yl)-2-oxoethyl)-5-oxopyrrolidine-3-carboxamide] | 87.6% | 100% | 100% | – |
| COCc1ccc(C(NC(=O)[C@@H]2CNC(=O)C2)C(=O)Nc2ccc(CC(C)(C)C)c(F)c2)cc1 (mixture of isomers) [Example 110, (3S)—N-(2-((4-(2,2-dimethylpropyl)-3-fluorophenyl)amino)-1-(4-(methoxymethyl)phenyl)-2-oxoethyl)-5-oxopyrrolidine-3-carboxamide] | 71.1% | 99.6% | – | 95.4% |
| CC(C)(C)c1ccc(NC(=O)[C@H](NC(=O)C(O)C(F)(F)F)C2CCOCC2)cc1Cl (single isomer, unassigned) [Example 11] | 32% | 102% | – | 97.5% |
| COCc1ccc([C@@H](NC(=O)C2CNC(=O)C2)C(=O)Nc2ccc(CC(C)(C)C)c(F)c2)cc1 (stereo in doubt) [Example 115, (3S)-N-((1R)-2-((4-(2,2-dimethylpropyl)-3-fluorophenyl)amino)-1-(4-(methoxymethyl)phenyl)-2-oxoethyl)-5-oxopyrrolidine-3-carboxamide] | 71.6% | 102% | – | 97.3% |
| C[Si](C)(C)c1c(F)cc(NC(=O)C(NC(=O)Cn2cnccc2=O)C2CCOCC2)cc1F (stereo not drawn) [Example 1, N-(3,5-difluoro-4-(trimethylsilyl)phenyl)-2-(((6-oxopyrimidin-1(6H)-yl)acetyl)amino)-2-(tetrahydro-2H-pyran-4-yl)acetamide] | 72.7% | 100% | 97.3% | – |
| Cc1nnc(CC(=O)NC(C(=O)Nc2cc(F)c([Si](C)(C)C)c(F)c2)C2CCOCC2)o1 (stereo not drawn) [Example 2, N-(3,5-difluoro-4-(trimethylsilyl)phenyl)-2-(((5-methyl-1,3,4-oxadiazol-2-yl)acetyl)amino)-2-(tetrahydro-2H-pyran-4-yl)acetamide] | 78% | 102% | 98.1% | – |
| C[Si](C)(C)c1c(F)cc(NC(=O)[C@H](NC(=O)c2cc(O)no2)C2CCOCC2)cc1F [Example 3, N-((1R)-2-((3,5-difluoro-4-(trimethylsilyl)phenyl)amino)-2-oxo-1-(tetrahydro-2H-pyran-4-yl)ethyl)-3-hydroxy-1,2-oxazole-5-carboxamide] | 72.3% | 100% | 98.4% | – |
| C[Si](C)(C)c1ccc(NC(=O)C(NC(=O)c2cc(O)no2)C2CCC(F)(F)CC2)cc1F (stereo not drawn) [Example 4, N-(1-(4,4-difluorocyclohexyl)-2-((3-fluoro-4-(trimethylsilyl)phenyl)amino)-2-oxoethyl)-3-hydroxy-1,2-oxazole-5-carboxamide] | 78.8% | 100% | 97% | – |
| C[Si](C)(C)c1ccc(NC(=O)C(NC(=O)[C@@H]2CNC(=O)C2)C2CCC(F)(F)CC2)cc1F (stereo partly drawn) [Example 5, (3S)—N-(1-(4,4-difluorocyclohexyl)-2-((3-fluoro-4-(trimethylsilyl)phenyl)amino)-2-oxoethyl)-5-oxopyrrolidine-3-carboxamide] | 84.8% | 100% | 98% | – |
| CN(C(=O)c1cc(O)no1)C(C(=O)Nc1cc(F)c([Si](C)(C)C)c(F)c1)C1CCOCC1 (stereo not drawn) [Example 6, N-(2-((3,5-difluoro-4-(trimethylsilyl)phenyl)amino)-2-oxo-1-(tetrahydro-2H-pyran-4-yl)ethyl)-3-hydroxy-N-methyl-1,2-oxazole-5-carboxamide] | 99.4% | 102% | 101% | – |
| CC(C)(C)c1ccc(NC(=O)[C@H](NC(=O)[C@@H]2CNC(=O)C2)C2CCC(F)(F)CC2)cc1F [Example 7, (3S)—N-((1R)-2-((4-tert-butyl-3-fluorophenyl)amino)-1-(4,4-difluorocyclohexyl)-2-oxoethyl)-5-oxopyrrolidine-3-carboxamide] | 56.9% | 102% | – | 97% |
| CC(C)(C)c1ccc(NC(=O)[C@H](NC(=O)C2CNC(=O)O2)C2CCC(F)(F)CC2)cc1F (stereo partly drawn) [Example 8, N-((1R)-2-((4-tert-butyl-3-fluorophenyl)amino)-1-(4,4-difluorocyclohexyl)-2-oxoethyl)-2-oxo-1,3-oxazolidine-5-carboxamide] | 49.1% | 102% | – | 93.4% |
| CC(C)(C)c1ccc(NC(=O)[C@H](NC(=O)CC(F)(F)F)C2CCOCC2)cc1Cl [Example 9, N-((1R)-2-((4-tert-butyl-3-chlorophenyl)amino)-2-oxo-1-(tetrahydro-2H-pyran-4-yl)ethyl)-3,3,3-trifluoropropanamide] | 29.7% | 100% | – | 97.6% |
| CC(C)(C)c1ccc(NC(=O)[C@H](NC(=O)[C@@H](O)C(F)(F)F)C2CCOCC2)cc1Cl [Example 10, N-((1R)-2-((4-tert-butyl-3-chlorophenyl)amino)-2-oxo-1-(tetrahydro-2H-pyran-4-yl)ethyl)-3,3,3-trifluoro-2-hydroxypropanamide] | 2.04% | 102% | – | 95.3% |
| COc1ccc(C(NC(=O)C2CNC(=O)C2)C(=O)Nc2ccc([Si](C)(C)C)cc2)cc1 (stereo not drawn) [Example 13, N-(1-(4-methoxyphenyl)-2-oxo-2-((4-(trimethylsilyl)phenyl)amino)ethyl)-5-oxopyrrolidine-3-carboxamide] | 51.1% | 101% | 92.6% | – |
| COc1ccc(C(C(=O)Nc2ccc([Si](C)(C)C)c(F)c2)N(C)C(=O)c2cc(O)no2)cc1 (stereo not drawn) [Example 15, N-(2-((3-fluoro-4-(trimethylsilyl)phenyl)amino)-1-(4-methoxyphenyl)-2-oxoethyl)-3-hydroxy-N-methyl-1,2-oxazole-5-carboxamide] | 91.6% | 109% | 99.4% | – |
| COc1ccc(C(NC(=O)Cc2ccc(=O)[nH]c2)C(=O)Nc2ccc([Si](C)(C)C)cc2)cc1 (stereo not drawn) [Example 16, 2-(4-methoxyphenyl)-2-(((6-oxo-1,6-dihydropyridin-3-yl)acetyl)amino)-N-(4-(trimethylsilyl)phenyl)acetamide] | 81.9% | 102% | 93.2% | – |
| COc1ccc(C(NC(=O)Cc2cc(C)no2)C(=O)Nc2ccc([Si](C)(C)C)cc2)cc1 (stereo not drawn) [Example 18, 2-(4-methoxyphenyl)-2-(((3-methyl-1,2-oxazol-5-yl)acetyl)amino)-N-(4-(trimethylsilyl)phenyl)acetamide] | 60.3% | 101% | 90.9% | – |
| COc1ccc(C(NC(=O)Cc2ccn(C)n2)C(=O)Nc2ccc([Si](C)(C)C)cc2)cc1 (stereo not drawn) [Example 19, 2-(4-methoxyphenyl)-2-(((1-methyl-1H-pyrazol-3-yl)acetyl)amino)-N-(4-(trimethylsilyl)phenyl)acetamide] | 50.7% | 101% | 84.7% | – |
